Measured values taken from US20260217703A1, “INHIBITORS OF a-HEMOL YSIN OF STAPHYLOCOCCUS AUREUS” (HELMHOLTZ-ZENTRUM FÜR INFEKTIONSFORSCHUNG GMBH, priority 2022, published 2026).

Assays:
[1] = target: hemolysin alpha from Staphylococcus aureus (Staphylococcus aureus, UniProt P09616); test: cell-based
[2] = target: S. aureus Alpha hemolysin (Staphylococcus aureus, UniProt P09616); test: cell-based
Chain of S. aureus Alpha hemolysin (P09616 27-319 limits assumed): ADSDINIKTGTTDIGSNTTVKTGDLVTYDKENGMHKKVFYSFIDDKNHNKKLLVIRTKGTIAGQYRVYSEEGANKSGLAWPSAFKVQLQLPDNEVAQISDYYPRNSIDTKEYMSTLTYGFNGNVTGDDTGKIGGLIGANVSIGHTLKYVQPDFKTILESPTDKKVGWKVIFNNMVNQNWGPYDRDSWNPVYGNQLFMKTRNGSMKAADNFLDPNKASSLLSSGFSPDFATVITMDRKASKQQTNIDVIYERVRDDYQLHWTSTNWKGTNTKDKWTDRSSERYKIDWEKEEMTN

Chain of hemolysin alpha from Staphylococcus aureus (P09616 27-319 limits assumed): as above

`O=c1[nH]c2ccc(S(=O)(=O)Nc3ccc(-c4ccc(F)cc4)c(Cl)c3)nc2[nH]c1=O` [Compound 29, N-(2-chloro-4′-fluoro-[1,1′-biphenyl]-4-yl)-2,3-dioxo-1,2,3,4-tetrahydropyrido[2,3-b]pyrazine-6-sulfonamide] showed an IC50 [1] of 100 to 1000 nM and an IC50 [2] of 1000 to 6000 nM.
Compound `Cc1cc2[nH]c(=O)c(=O)[nH]c2nc1S(=O)(=O)Nc1ccc(-c2ccc(F)c(Cl)c2)c(Cl)c1` [Compound 10, N-(2,3′-dichloro-4′-fluoro-[1,1′-biphenyl]-4-yl)-7-methyl-2,3-dioxo-1,2,3,4-tetrahydropyrido[2,3-b]pyrazine-6-sulfonamide] has an IC50 [1] of 30 to 100 nM and an IC50 [2] of 1000 to 6000 nM.
`Cc1cc2[nH]c(=O)c(=O)[nH]c2nc1S(=O)(=O)Nc1ccc(C23CC(C2)C3)cc1` [Compound 23, N-(4-(bicyclo[1.1.1]pentan-1-yl)phenyl)-7-methyl-2,3-dioxo-1,2,3,4-tetrahydropyrido[2,3-b]pyrazine-6-sulfonamide] gave an IC50 [1] of under 30 nM and an IC50 [2] of 100 to 1000 nM.
Work on `Cc1cc2[nH]c(=O)c(=O)[nH]c2nc1S(=O)(=O)Nc1cnc(-c2cncc(Cl)c2)c(Cl)c1` [Compound 13, N-(3,5′-dichloro-[2,3′-bipyridin]-5-yl)-7-methyl-2,3-dioxo-1,2,3,4-tetrahydropyrido[2,3-b]pyrazine-6-sulfonamide] yielded an IC50 [1] of 1000 to 3500 nM.
With `Cc1cc2[nH]c(=O)c(=O)[nH]c2nc1S(=O)(=O)Nc1ccc(-c2ccc3oc(C4CC4)nc3c2)c(Cl)c1` [Compound 41, N-(3-chloro-4-(2-cyclopropylbenzo[d]oxazol-5-yl)phenyl)-7-methyl-2,3-dioxo-1,2,3,4-tetrahydropyrido[2,3-b]pyrazine-6-sulfonamide] the IC50 [1] was under 30 nM and the IC50 [2] was 30 to 100 nM.
Work on `Cc1nc2cc(-c3ccc(NS(=O)(=O)c4nc5[nH]c(=O)c(=O)[nH]c5cc4C)cc3Cl)cnc2o1` [Compound 39, N-(3-chloro-4-(2-methyloxazolo[5,4-b]pyridin-6-yl)phenyl)-7-methyl-2,3-dioxo-1,2,3,4-tetrahydropyrido[2,3-b]pyrazine-6-sulfonamide] yielded an IC50 [1] of under 30 nM and an IC50 [2] of 30 to 100 nM.
With `Cc1nc2cc(-c3ncc(NS(=O)(=O)c4ccc5[nH]c(=O)c(=O)[nH]c5n4)cc3Cl)ccc2o1` [Compound 31, N-(5-chloro-6-(2-methylbenzo[d]oxazol-5-yl)pyridin-3-yl)-2,3-dioxo-1,2,3,4-tetrahydropyrido[2,3-b]pyrazine-6-sulfonamide] the IC50 [1] was 100 to 1000 nM and the IC50 [2] was 1000 to 6000 nM.
`O=c1[nH]c2ccc(S(=O)(=O)Nc3ccc(OC(F)(F)F)cc3)nc2[nH]c1=O` [Compound 26, 2,3-dioxo-N-(4-(trifluoromethoxy)phenyl)-1,2,3,4-tetrahydropyrido[2,3-b]pyrazine-6-sulfonamide] showed an IC50 [1] of 100 to 1000 nM and an IC50 [2] of 100 to 1000 nM.
For `C=C(C)c1cc2[nH]c(=O)c(=O)[nH]c2nc1S(=O)(=O)Nc1ccc(OC(F)(F)F)cc1` [Compound 27, 2,3-dioxo-7-(prop-1-en-2-yl)-N-(4-(trifluoromethoxy)phenyl)-1,2,3,4-tetrahydropyrido[2,3-b]pyrazine-6-sulfonamide], the IC50 [1] was under 30 nM and the IC50 [2] was under 30 nM.
`Cc1nc2cc(-c3ccc(NS(=O)(=O)c4nc5[nH]c(=O)c(=O)[nH]c5cc4C)cc3Cl)ccc2o1` [Compound 15, N-(3-chloro-4-(2-methylbenzo[d]oxazol-5-yl)phenyl)-7-methyl-2,3-dioxo-1,2,3,4-tetrahydropyrido[2,3-b]pyrazine-6-sulfonamide] was tested, and the IC50 [1] was under 30 nM and the IC50 [2] was 30 to 100 nM.
`Cc1cc2[nH]c(=O)c(=O)[nH]c2nc1S(=O)(=O)Nc1ccc(C(C)C)cc1` [Compound 19, N-(4-isopropylphenyl)-7-methyl-2,3-dioxo-1,2,3,4-tetrahydropyrido[2,3-b]pyrazine-6-sulfonamide] showed an IC50 [1] of 100 to 1000 nM and an IC50 [2] of 100 to 1000 nM.
`Cc1nc2ccc(-c3ccc(NS(=O)(=O)c4ccc5[nH]c(=O)c(=O)[nH]c5n4)cc3Cl)cc2[nH]1` [Compound 30, N-(3-chloro-4-(2-methyl-1H-benzo[d]imidazol-6-yl)phenyl)-2,3-dioxo-1,2,3,4-tetrahydropyrido[2,3-b]pyrazine-6-sulfonamide] was tested, and the IC50 [1] was 1000 to 3500 nM.
`Cc1cc2[nH]c(=O)c(=O)[nH]c2nc1S(=O)(=O)Nc1cnc(-c2ccc(F)cc2)c(Cl)c1` [Compound 12, N-(5-chloro-6-(4-fluorophenyl)pyridin-3-yl)-7-methyl-2,3-dioxo-1,2,3,4-tetrahydropyrido[2,3-b]pyrazine-6-sulfonamide] was tested, and the IC50 [1] was 30 to 100 nM and the IC50 [2] was 1000 to 6000 nM.
Compound `Cc1cc(NS(=O)(=O)c2nc3[nH]c(=O)c(=O)[nH]c3cc2C)ccc1Br` [Compound 18, N-(4-bromo-3-methylphenyl)-7-methyl-2,3-dioxo-1,2,3,4-tetrahydropyrido[2,3-b]pyrazine-6-sulfonamide] has an IC50 [1] of 100 to 1000 nM and an IC50 [2] of 100 to 1000 nM.
`Cc1cc2[nH]c(=O)c(=O)[nH]c2nc1S(=O)(=O)Nc1ccc(-c2ccc(F)cc2)c(Cl)c1` [Compound 9, N-(2-chloro-4′-fluoro-[1,1′-biphenyl]-4-yl)-7-methyl-2,3-dioxo-1,2,3,4-tetrahydropyrido[2,3-b]pyrazine-6-sulfonamide] was tested, and the IC50 [1] was under 30 nM and the IC50 [2] was 100 to 1000 nM.
For `Cc1nc2cc(-c3ccc(NS(=O)(=O)c4nc5[nH]c(=O)c(=O)[nH]c5cc4C)cc3C(F)(F)F)ccc2o1` [Compound 38, 7-methyl-N-(4-(2-methylbenzo[d]oxazol-5-yl)-3-(trifluoromethyl)phenyl)-2,3-dioxo-1,2,3,4-tetrahydropyrido[2,3-b]pyrazine-6-sulfonamide], the IC50 [1] was under 30 nM and the IC50 [2] was 100 to 1000 nM.
Compound `O=c1[nH]c2cc(Br)c(S(=O)(=O)Nc3ccc(OC(F)(F)F)cc3)nc2[nH]c1=O` [Compound 25, 7-bromo-2,3-dioxo-N-(4-(trifluoromethoxy)phenyl)-1,2,3,4-tetrahydropyrido[2,3-b]pyrazine-6-sulfonamide] has an IC50 [1] of 30 to 100 nM and an IC50 [2] of 100 to 1000 nM.
With `Cc1cc2[nH]c(=O)c(=O)[nH]c2nc1S(=O)(=O)Nc1ccc(C2CCC2)cc1` [Compound 21, N-(4-cyclobutylphenyl)-7-methyl-2,3-dioxo-1,2,3,4-tetrahydropyrido[2,3-b]pyrazine-6-sulfonamide] the IC50 [1] was under 30 nM and the IC50 [2] was 30 to 100 nM.
`Cc1cc2[nH]c(=O)c(=O)[nH]c2nc1S(=O)(=O)Nc1ccc(-c2ccc(C#N)cc2)c(Cl)c1` [Compound 17, N-(2-chloro-4′-cyano-[1,1′-biphenyl]-4-yl)-7-methyl-2,3-dioxo-1,2,3,4-tetrahydropyrido[2,3-b]pyrazine-6-sulfonamide] showed an IC50 [1] of 30 to 100 nM and an IC50 [2] of 100 to 1000 nM.
`Cc1cc2[nH]c(=O)c(=O)[nH]c2nc1S(=O)(=O)Nc1ccc(C2=CCCCC2)cc1` [Compound 20, 7-methyl-2,3-dioxo-N-(2′,3′,4′,5′-tetrahydro-[1,1′-biphenyl]-4-yl)-1,2,3,4-tetrahydropyrido[2,3-b]pyrazine-6-sulfonamide] gave an IC50 [1] of 100 to 1000 nM and an IC50 [2] of 100 to 1000 nM.
`Cc1cc2[nH]c(=O)c(=O)[nH]c2nc1S(=O)(=O)Nc1cnc(-c2ccc3c(c2)NC(=O)CO3)c(Cl)c1` [Compound 36, N-(5-chloro-6-(3-oxo-3,4-dihydro-2H-benzo[b][1,4]oxazin-6-yl)pyridin-3-yl)-7-methyl-2,3-dioxo-1,2,3,4-tetrahydropyrido[2,3-b]pyrazine-6-sulfonamide] gave an IC50 [1] of 30 to 100 nM and an IC50 [2] of 1000 to 6000 nM.
`CC(C)c1cc2[nH]c(=O)c(=O)[nH]c2nc1S(=O)(=O)Nc1ccc(OC(F)(F)F)cc1` [Compound 34, 7-isopropyl-2,3-dioxo-N-(4-(trifluoromethoxy)phenyl)-1,2,3,4-tetrahydropyrido[2,3-b]pyrazine-6-sulfonamide] was tested, and the IC50 [1] was 30 to 100 nM and the IC50 [2] was 100 to 1000 nM.
`Cc1nc2cc(-c3ccc(NS(=O)(=O)c4nc5[nH]c(=O)c(=O)[nH]c5cc4C)cc3C)ccc2o1` [Compound 40, 7-methyl-N-(3-methyl-4-(2-methylbenzo[d]oxazol-5-yl)phenyl)-2,3-dioxo-1,2,3,4-tetrahydropyrido[2,3-b]pyrazine-6-sulfonamide] showed an IC50 [1] of under 30 nM and an IC50 [2] of 30 to 100 nM.
`Cc1nc2cc(-c3ncc(NS(=O)(=O)c4nc5[nH]c(=O)c(=O)[nH]c5cc4C)cc3Cl)ccc2o1` [Compound 35, N-(5-chloro-6-(2-methylbenzo[d]oxazol-5-yl)pyridin-3-yl)-7-methyl-2,3-dioxo-1,2,3,4-tetrahydropyrido[2,3-b]pyrazine-6-sulfonamide] showed an IC50 [1] of under 30 nM and an IC50 [2] of 100 to 1000 nM.
`Cc1nc2ccc(-c3ccc(NS(=O)(=O)c4ccc5[nH]c(=O)c(=O)[nH]c5n4)cc3Cl)cc2o1` [Compound 28, N-(3-chloro-4-(2-methylbenzo[d]oxazol-6-yl)phenyl)-2,3-dioxo-1,2,3,4-tetrahydropyrido[2,3-b]pyrazine-6-sulfonamide] showed an IC50 [1] of under 30 nM and an IC50 [2] of 100 to 1000 nM.
`Cc1cc2[nH]c(=O)c(=O)[nH]c2nc1S(=O)(=O)Nc1ccc(-c2ccc(F)cc2)c(C(F)(F)F)c1` [Compound 32, N-(4′-fluoro-2-(trifluoromethyl)-[1,1′-biphenyl]-4-yl)-7-methyl-2,3-dioxo-1,2,3,4-tetrahydropyrido[2,3-b]pyrazine-6-sulfonamide] showed an IC50 [1] of 100 to 1000 nM and an IC50 [2] of 100 to 1000 nM.
Compound `Cc1cc2[nH]c(=O)c(=O)[nH]c2nc1S(=O)(=O)Nc1ccc(-c2ccc3oc(C(C)C)nc3c2)c(Cl)c1` [Compound 37, N-(3-chloro-4-(2-isopropylbenzo[d]oxazol-5-yl)phenyl)-7-methyl-2,3-dioxo-1,2,3,4-tetrahydropyrido[2,3-b]pyrazine-6-sulfonamide] has an IC50 [1] of under 30 nM and an IC50 [2] of 100 to 1000 nM.
With `Cc1cc(NS(=O)(=O)c2nc3[nH]c(=O)c(=O)[nH]c3cc2C)ccc1-c1ccc(F)cc1` [Compound 33, N-(4′-fluoro-2-methyl-[1,1′-biphenyl]-4-yl)-7-methyl-2,3-dioxo-1,2,3,4-tetrahydropyrido[2,3-b]pyrazine-6-sulfonamide] the IC50 [1] was 100 to 1000 nM and the IC50 [2] was 30 to 100 nM.
`Cc1cc2[nH]c(=O)c(=O)[nH]c2nc1S(=O)(=O)Nc1ccc2ccccc2c1` [Compound 24, 7-methyl-N-(naphthalen-2-yl)-2,3-dioxo-1,2,3,4-tetrahydropyrido[2,3-b]pyrazine-6-sulfonamide] showed an IC50 [1] of 100 to 1000 nM and an IC50 [2] of 100 to 1000 nM.
